The target in assay [1] is T1, Glucocorticoid receptor (GR) (Rattus norvegicus, UniProt P06536).
T1 construct: receptors in the cytosol from animal target organs; from tissue; host or cells: thymus cytosol of adrenalectomized rat
T1 sequence (P06536 1-795): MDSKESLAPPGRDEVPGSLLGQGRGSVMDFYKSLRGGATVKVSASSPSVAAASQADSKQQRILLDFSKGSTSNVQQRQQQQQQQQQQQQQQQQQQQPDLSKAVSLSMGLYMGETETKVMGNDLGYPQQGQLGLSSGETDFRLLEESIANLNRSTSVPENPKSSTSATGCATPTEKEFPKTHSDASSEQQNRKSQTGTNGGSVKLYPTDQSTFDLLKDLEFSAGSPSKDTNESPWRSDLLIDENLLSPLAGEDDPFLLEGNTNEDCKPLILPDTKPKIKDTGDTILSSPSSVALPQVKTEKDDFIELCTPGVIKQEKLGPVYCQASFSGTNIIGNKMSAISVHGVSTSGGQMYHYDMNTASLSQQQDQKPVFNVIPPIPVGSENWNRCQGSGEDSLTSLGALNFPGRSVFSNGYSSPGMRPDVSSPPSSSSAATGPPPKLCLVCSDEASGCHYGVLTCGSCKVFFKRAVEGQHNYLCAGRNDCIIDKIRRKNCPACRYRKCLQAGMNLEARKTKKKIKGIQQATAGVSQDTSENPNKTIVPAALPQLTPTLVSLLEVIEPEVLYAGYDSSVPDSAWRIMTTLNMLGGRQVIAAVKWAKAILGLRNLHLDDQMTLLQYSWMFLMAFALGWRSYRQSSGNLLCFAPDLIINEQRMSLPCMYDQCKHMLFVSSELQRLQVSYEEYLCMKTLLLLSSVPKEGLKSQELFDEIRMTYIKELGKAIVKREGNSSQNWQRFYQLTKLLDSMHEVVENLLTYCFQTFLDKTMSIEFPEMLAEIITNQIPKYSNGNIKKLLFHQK
The experiment in a line: Receptor binding affinity, glucocorticoid receptor (competitive binding with 3H-dexamethasone). The settings on record: for Glucocorticoid receptor (GR) dexamethasone = 100% (relative molar binding affinity, RBA): thymus cytosol of adrenalectomized rat, tracer 3H-dexamethasone 20 nM, reference dexamethasone = 100%. As to the method:
(§1) The receptor binding affinity was determined by the competitive binding of a specifically binding ^3H-labelled hormone (tracer) and the test compound to receptors in the cytosol from animal target organs, with the aim of achieving receptor saturation and reaction equilibrium.
(§2) The tracer and increasing concentrations of the test compound (competitor) were coincubated with the receptor-containing cytosol fraction at 0-4° C. for 18 h. After separation of the unbound tracer with a carbon/dextran suspension, the proportion of receptor-bound tracer was measured for each concentration and the IC50 was determined from the concentration series.
(§3) The following incubation conditions were chosen for the individual receptor types:
Thymus cytosol of the adrenalectomized rat, thymi stored at −30° C.; buffer: TED. Tracer: ^3H-dexamethasone, 20 nM; reference substance: dexamethasone.

In assay [2] the target is T2, Progesterone receptor (PR) (Oryctolagus cuniculus, UniProt P06186).
T2 construct: receptors in the cytosol from animal target organs; from tissue; host or cells: uterus cytosol of oestradiol-primed rabbit
T2 sequence (P06186 1-930): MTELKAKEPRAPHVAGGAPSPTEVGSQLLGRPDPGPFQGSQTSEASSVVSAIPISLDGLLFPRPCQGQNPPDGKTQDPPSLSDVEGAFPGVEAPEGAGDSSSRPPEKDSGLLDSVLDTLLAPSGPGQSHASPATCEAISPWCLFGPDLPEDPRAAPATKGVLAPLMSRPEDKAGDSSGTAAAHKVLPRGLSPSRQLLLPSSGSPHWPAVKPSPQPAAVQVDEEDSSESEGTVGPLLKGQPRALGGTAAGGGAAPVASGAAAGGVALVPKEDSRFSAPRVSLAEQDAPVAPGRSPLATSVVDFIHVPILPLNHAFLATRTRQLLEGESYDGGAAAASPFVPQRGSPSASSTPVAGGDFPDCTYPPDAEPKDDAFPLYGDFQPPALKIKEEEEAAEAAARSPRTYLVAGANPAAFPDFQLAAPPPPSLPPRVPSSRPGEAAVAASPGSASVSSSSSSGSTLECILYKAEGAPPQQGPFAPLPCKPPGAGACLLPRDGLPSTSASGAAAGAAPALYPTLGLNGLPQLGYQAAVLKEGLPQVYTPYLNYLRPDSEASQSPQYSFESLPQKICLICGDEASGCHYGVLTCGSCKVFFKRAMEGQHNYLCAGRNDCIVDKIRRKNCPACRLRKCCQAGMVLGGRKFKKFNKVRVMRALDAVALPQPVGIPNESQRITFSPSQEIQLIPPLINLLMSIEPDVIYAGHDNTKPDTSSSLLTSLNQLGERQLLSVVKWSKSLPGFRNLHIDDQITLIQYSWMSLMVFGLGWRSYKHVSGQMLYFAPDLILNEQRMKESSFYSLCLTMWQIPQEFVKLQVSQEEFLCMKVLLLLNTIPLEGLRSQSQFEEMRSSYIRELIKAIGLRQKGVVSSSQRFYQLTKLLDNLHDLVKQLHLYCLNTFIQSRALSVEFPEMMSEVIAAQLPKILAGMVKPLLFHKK
The experiment in a line: Receptor binding affinity, progesterone receptor (competitive binding with 3H-ORG 2058). The settings on record: uterus cytosol of oestradiol-primed rabbit; tracer 3H-ORG 2058 5 nM; reference progesterone = 100%. As to the method: as §1, §2, §3
Uterus cytosol of the oestradiol-primed rabbit, homogenized in TED buffer (20 mM Tris/HCI, pH 7.4; 1 mM ethylenediaminetetraacetate, 2 mM dithiothreitol) containing 250 mM sucrose; kept at −30° C.

This is an account of results in patent US7473709B2, “11β-benzaldoxime derivatives of D-homooestra-4,9-dien-3-ones” (Bayer Schering Pharma AG, priority 2005, dated 2009).

Consider `CC#C[C@]1(O)CC[C@H]2[C@@H]3CCC4=CC(=O)CCC4=C3[C@@H](c3ccc(N(C)C)cc3)C[C@@]21C` [RU 38486, mifepristone], for which the “Glucocorticoid receptor (GR) dexamethasone = 100% (relative molar binding affinity, RBA)” value in assay [1] turned out to be 683%.

For the molecule “4-[17aβ-Methoxy-17aα-(methoxymethyl)-17a-homo-3-oxooestra-4,9-dien-11β-yl]benzaldehyde (1E)-[O-(ethylamino)carbonyl]oxime [Example 6]”, the “Progesterone receptor (PR) progesterone = 100% (relative molar binding affinity, RBA)” value in assay [2] is given as 158%. Further, the “Ratio GR/PR” value in assay [1] (ratio of RBA at GR to RBA at PR) is given as 2.8. In assay [1], the “Glucocorticoid receptor (GR) dexamethasone = 100% (relative molar binding affinity, RBA)” value was found to be 450%.
